Measurements: patent US7662767B2, “Polynucleotide intercalator interceptors and inhibitors” (Materials Evolution and Development USA, Inc., priority 2000, dated 2010)
“Also recorded” adds a separate entry of the source. Where two headings read alike, the source gives them in different places.

Key:
[1] = AO-AO, AO [20 μM], Kapuscinski & Kimmel, 1993, cited from earlier work
[2] = tested on: chicken erythrocyte nuclear chromatin; test: Quantified removal of intercalated AO from chicken erythrocyte smears, fluorescence plate reader; conditions: 100 mM xanthine, static, 10 seconds to two hours, AO 1 mM 10 sec stain, λex 485 nm, λem 530 nm
Procedure: Microscope slides (slides) coated with chicken erythrocytes were stained by placing the slide into a 50 ml beaker filled with a 1 mM solution of AO prepared in distilled water for approximately 10 seconds (static) followed by three successive 10 second rinses in distilled water before drying at room temperature. Care was taken to store all slides in the dark when not in use to avoid photobleaching. Stained slides were dried prior to being exposed to 50 ml of a 100 mM solution of either CAF or aminophylline (AM) for set time periods under static conditions. Exposure to the xanthine solution was followed by three 10-second rinses with distilled water and drying of the slides in the dark prior to fluorescence analysis. Control slides consisted of erythrocyte coated slides that were subsequently placed in only distilled water (no stain) prior to drying, blank slides (no erythrocytes) placed in AO staining solutions then dried served as negative controls, and erythrocyte coated cells stained with AO but exposed to only distilled water and not a xanthine solution served as positive control. The stained microscope slides were then attached by tape to a plastic frame (upside down 96-well plate cover) and fluorescence determined using a Perkin-Elmer Model HTS 7000 Bio Assay Reader with λex 485nm and λem 530 with the gain set at 40.
Distilled water served as solvent control (n=8).

[3] = tested on: chicken erythrocyte nuclear chromatin; test: Blocking of acridine orange intercalation into chicken erythrocyte nuclear chromatin, fluorescence microscopy; set-up: key: 0: no blocking effect; 1: slight blocking; 2: moderate blocking; 3: almost total blocking (very slight green fluorescence detectable); 4: complete blockage (no green fluorescence detectable); conditions: 10 μM AO
Procedure: Microscope slides coated with chicken erythrocyte were stained with 10 μM AO at three separate areas on the microscope slide as described above. Slides were exposed to […] different xanthies at four different molar ratios for three different periods of time. The xanthines, theophylline, caffeine, 1,3,7,9-tetramethyl uric acid, and aminophylline, were prepared with 10 μM AO at molar ratios of 50:1, 500:1, 2500:1, 5000:1 xanthine to AO in distilled water. Microscope slides coated with chicken erythrocytes were exposed to a mixture of xanthine/AO at each molar ratio for periods of 10 min, 1 min, and 10 seconds under static (non-agitated) conditions. […] Following exposure to the xanthine/AO or to the DNA/AO solutions, the slides were rinsed in distilled water, allowed to dry at room temperature, examined by fluorescence microscopy, and the color of the nuclei recorded. Results were recorded as follows: 0=no blocking effect; 1=slight blocking; 2=moderate blocking; 3=almost total blocking (very slight green fluorescence detectable); 4=complete blockage (no green fluorescence detectable).
In the implementation shown in Table 4-2, the relative intensity of the green fluorescent color ([…]) utilizing a red blocking filter (≧600 nm) was used as the indicator of the intensity of staining. The molar ratio is expressed as the ratio of xanthine concentration to 10 μM AO. Results were recorded as follows: 0=no blocking effect; 1=slight blocking; 2=moderate blocking; 3=almost total blocking (very slight green fluorescence detectable); 4=complete blockage (no green fluorescence detectable). *Kassoc values for the xanthines are taken from Table 2-1 and the Kassoc values for DNA were taken from Table 3-2.

[4] = AO-CAF complex, spectrofluorometry λex 485 nm / λem 530 nm; format: binding; conditions: AO [2 μM], CAF [1-20 μM]
Procedure: Spectrofluorometric analysis was performed at an AO concentration of 2 μM to determine the effect of CAF and a physiological concentration of NaCl on the fluorescence spectra of AO. CAF was added over a series of CAF:AO molecular ratios ranging from 2500:1 to 0.5:1 and the fluorescence intensity determined at λem 530 nm and 635 nm. The fluorescence intensity was again determined following the addition of NaCl to a final concentration 150 mM and pH 7.0 to each test well containing both AO and CAF.
The data in FIG. 3-5A depicts the mean fluorescence values at λem 530 nm of 2 μM AO with CAF in the absence of, and in the presence of, 150 mM NaCl over a range of CAF to AO molecular ratios from 0.5 to 10.0 (1 μM to 20 μM CAF). The example shown in FIG. 3-5A is a plot of fluorescence intensity of AO excited at λex 485 nm and monitored at λem 530 nm versus CAF concentration to show the effect of CAF and NaCl on the fluorescence of AO and the formation of the AO-CAF complex. Solutions of 2 μM AO were analyzed using spectrofluorometric techniques in the presence of various concentrations of CAF with and without addition of NaCl [150 mM]. […] However at the CAF concentration of 5 mM (molecular ratio 2,500:1) there was a significant change in the mean fluorescence intensity with the value going from 1,245±53 for CAF and AO alone to 1,150±34 with the addition of 150 mM NaCl. […]

[5] = Xanthine/AO molar ratio 5000:1, exposure 10 min
[6] = molar ratio 50:1, exposure 10 sec
[7] = molar ratio 50:1, exposure 1 min
[8] = molar ratio 50:1, exposure 10 min
[9] = molar ratio 500:1, exposure 10 sec
[10] = molar ratio 500:1, exposure 1 min
[11] = molar ratio 500:1, exposure 10 min
[12] = molar ratio 2500:1, exposure 10 sec
[13] = molar ratio 2500:1, exposure 1 min
[14] = molar ratio 2500:1, exposure 10 min
[15] = molar ratio 5000:1, exposure 10 sec
[16] = molar ratio 5000:1, exposure 1 min

SMILES	K ± S.D. ([1]; Absorbance (mathematical model))	K ± S.D. ([1]; Absorbance plus NaCl 150 mM)	reduction of fluorescence (removal of AO) versus time of exposure ([2]; listed as AM)	blocking of AO intercalation [3, 5]	blocking of AO intercalation [3, 6]	blocking of AO intercalation [3, 7]	blocking of AO intercalation [3, 8]	blocking of AO intercalation [3, 9]	blocking of AO intercalation [3, 10]	blocking of AO intercalation [3, 11]	blocking of AO intercalation [3, 12]	blocking of AO intercalation [3, 13]	blocking of AO intercalation [3, 14]	blocking of AO intercalation [3, 15]	blocking of AO intercalation [3, 16]	K ± S.D. ([4]; Fluorescence plus NaCl 150 mM)	K ± S.D. ([4]; Fluorescence, absence of NaCl)	reduction of fluorescence (removal of AO) versus time of exposure [2]
CN(C)c1ccc2cc3ccc(N(C)C)cc3nc2c1.Cl [AO, 3,6-bis[dimethylamino]acridine hydrochloride]	29,100 M^−1	42,500 M^−1	–	–	–	–	–	–	–	–	–	–	–	–	–	–	–	–
Cn1c(=O)c2[nH]cnc2n(C)c1=O.NCCN [1,3-dimethyl xanthine ethylenediamine]	–	–	followed first order decay kinetics; also recorded: more rapid removal of AO from the nuclear chromatin	3	0	0	0	2	2	0	3	2	1	3	3	–	–	–
Cn1c(=O)c2c(ncn2C)n(C)c1=O [1,3,7-trimethyl xanthine (caffeine), 1,3,7-trimethyl xanthine]	–	–	–	1	0	0	0	2	0	0	2	1	0	3	2	216 ± 20 M⁻¹	254 ± 27 M⁻¹	followed first order decay kinetics
